In ChEMBL document CHEMBL1817609, “SAR studies of 4-pyridyl heterocyclic anilines that selectively induce autophagic cell death in von Hippel-Lindau-deficient renal cell carcinoma cells” (Bioorg Med Chem, 2011):

Tests used:
[1] = Growth inhibition of human RCC4 cells after 4 days by XTT assay; assay type: functional, cell-based; settings: RCC4, 96 h
[2] = Selectivity ratio IC50 for human RCC4/VHL cells to IC50 for human RCC4 cells; assay type: functional
[3] = Growth inhibition of human RCC4/VHL cells after 4 days by XTT assay; assay type: functional, cell-based; settings: 96 h

Fc1ccc(Nc2nc(-c3ccncc3)cs2)cc1
IC50 ([1]; read-out: pIC50 (converted)): 6.03 µM

Cc1cccc(Nc2nc(-c3ccnc(-c4cnn(C)c4)c3)cs2)c1
Ratio IC50 [2]: 1.6 | IC50 [3]: 8.1 µM | IC50 ([1]; read-out: IC50): 5.2 µM | IC50 ([1]; read-out: pIC50 (converted)): 5.25 µM

Cc1cccc(Nc2nc(-c3ccncc3-c3ccc(S(=O)(=O)NC(C)(C)C)cc3)cs2)c1
Ratio IC50 [2]: 5 | IC50 [3]: 22.5 µM | IC50 ([1]; read-out: IC50): 4.5 µM | IC50 ([1]; read-out: pIC50 (converted)): 4.57 µM

Cc1cccc(Nc2nc(-c3ccncc3)c(CCCO)s2)c1
IC50 ([1]; read-out: pIC50 (converted)): 3.63 µM

Cc1cccc(Nc2nc(-c3ccncc3)n[nH]2)c1
Ratio IC50 [2]: 0.8 | IC50 [3]: 22.2 µM | IC50 ([1]; read-out: IC50): 28.7 µM | IC50 ([1]; read-out: pIC50 (converted)): 28.8 µM

Cc1cccc(Nc2nc(-c3ccnc(-c4ccsc4)c3)cs2)c1
Ratio IC50 [2]: >4.6 | IC50 [3]: > 40 µM | IC50 ([1]; read-out: IC50): 8.7 µM | IC50 ([1]; read-out: pIC50 (converted)): 8.71 µM

Cc1cccc(Nc2nc(-c3ccncc3)ns2)c1
Ratio IC50 [2]: >1.6 | IC50 [3]: > 40 µM | IC50 ([1]; read-out: IC50): 24.8 µM | IC50 ([1]; read-out: pIC50 (converted)): 25.1 µM

Cc1cccc(Nc2nc(-c3ccncc3-c3cn(Cc4ccccc4)nn3)cs2)c1
IC50 [3]: > 40 µM | IC50 ([1]; read-out: IC50): > 40 µM | IC50 ([1]; read-out: pIC50 (converted)): 40.7 µM

Cc1cccc(Nc2nc(-c3ccnc(-c4c(C)noc4C)c3)cs2)c1
Ratio IC50 [2]: 12 | IC50 [3]: 36.5 µM | IC50 ([1]; read-out: IC50): 3 µM | IC50 ([1]; read-out: pIC50 (converted)): 3.02 µM

C#Cc1cnccc1-c1csc(Nc2cccc(C)c2)n1
IC50 ([1]; read-out: pIC50 (converted)): 1.38 µM

Cc1cccc(Nc2nc(-c3ccnc(N4CCN(C)CC4)c3)cs2)c1
Ratio IC50 [2]: 2.8 | IC50 [3]: 31.6 µM | IC50 ([1]; read-out: IC50): 11.5 µM | IC50 ([1]; read-out: pIC50 (converted)): 11.7 µM

Clc1ccc(Nc2nc(-c3ccncc3)cs2)cc1Cl
IC50 ([1]; read-out: pIC50 (converted)): 13.8 µM

Cc1cccc(Nc2nc(-c3cc(-c4ccccc4)nc4ccccc34)cs2)c1
Ratio IC50 [2]: >1.6 | IC50 [3]: > 40 µM | IC50 ([1]; read-out: IC50): 25.4 µM | IC50 ([1]; read-out: pIC50 (converted)): 25.7 µM

Cc1cccc(Nc2nc(-c3ccncc3-c3ccncc3)cs2)c1
Ratio IC50 [2]: 2.5 | IC50 [3]: 34 µM | IC50 ([1]; read-out: IC50): 13.8 µM | IC50 ([1]; read-out: pIC50 (converted)): 13.8 µM

Cc1cccc(Nc2nc(-c3ccncc3)c(C)s2)c1
IC50 ([1]; read-out: pIC50 (converted)): 10 µM

Cc1cccc(Nc2cncc(-c3ccncc3)n2)c1
Ratio IC50 [2]: 3.7 | IC50 [3]: 31.8 µM | IC50 ([1]; read-out: IC50): 8.5 µM | IC50 ([1]; read-out: pIC50 (converted)): 8.51 µM

Cc1cccc(Nc2nc(-c3ccncc3)c(CN3CCCCC3)s2)c1
IC50 ([1]; read-out: pIC50 (converted)): 13.2 µM

Cc1cccc(Nc2nc(-c3ccnc(OCCCN(C)C)c3)cs2)c1
Ratio IC50 [2]: 1.5 | IC50 [3]: 8.8 µM | IC50 ([1]; read-out: IC50): 6 µM | IC50 ([1]; read-out: pIC50 (converted)): 6.03 µM

Cc1cccc(Nc2nc(-c3ccnc(-c4ccccc4)c3)cs2)c1
Ratio IC50 [2]: 2.1 | IC50 [3]: 40 µM | IC50 ([1]; read-out: IC50): 19.1 µM | IC50 ([1]; read-out: pIC50 (converted)): 19.5 µM

C#Cc1cc(-c2csc(Nc3cccc(C)c3)n2)ccn1
IC50 ([1]; read-out: pIC50 (converted)): 18.2 µM

Fc1ccccc1Nc1nc(-c2ccncc2)cs1
IC50 ([1]; read-out: pIC50 (converted)): 14.5 µM

Cc1cccc(Nc2nc(-c3ccncc3CCCO)cs2)c1
IC50 ([1]; read-out: pIC50 (converted)): 6.92 µM

Cc1cc(Nc2nc(-c3ccncc3)cs2)ccc1O
IC50 ([1]; read-out: pIC50 (converted)): 70.8 µM

FC(F)(F)c1ccc(Nc2nc(-c3ccncc3)cs2)cc1
IC50 ([1]; read-out: pIC50 (converted)): 40.7 µM

Cc1cccc(Nc2nc(-c3ccncc3)c(C(N)=O)s2)c1
IC50 ([1]; read-out: pIC50 (converted)): 19.5 µM

Oc1cccc(Nc2nc(-c3ccncc3)cs2)c1
IC50 ([1]; read-out: pIC50 (converted)): 28.8 µM

CCN(c1cccc(C)c1)c1nc(-c2ccncc2)cs1
IC50 ([1]; read-out: pIC50 (converted)): 40.7 µM

Cc1cccc(Nc2nnc(-c3ccncc3)n2C)c1
IC50 [3]: > 40 µM | IC50 ([1]; read-out: IC50): > 40 µM | IC50 ([1]; read-out: pIC50 (converted)): 40.7 µM

CCc1cc(-c2csc(Nc3cccc(C)c3)n2)ccn1
IC50 ([1]; read-out: pIC50 (converted)): 6.46 µM

Cc1cccc(Nc2nc(-c3ccnc(-c4cccc(F)n4)c3)cs2)c1
IC50 [3]: > 40 µM | IC50 ([1]; read-out: IC50): > 40 µM | IC50 ([1]; read-out: pIC50 (converted)): > 40 µM

Cc1cccc(Nc2nc(-c3ccncc3-c3ccccc3)cs2)c1
Ratio IC50 [2]: 2.9 | IC50 [3]: 33.2 µM | IC50 ([1]; read-out: IC50): 11.6 µM | IC50 ([1]; read-out: pIC50 (converted)): 11.7 µM

Cc1cccc(Nc2nc(-c3ccncc3C#CCCO)cs2)c1
Ratio IC50 [2]: 2.5 | IC50 [3]: 2.8 µM | IC50 ([1]; read-out: IC50): 1.1 µM | IC50 ([1]; read-out: pIC50 (converted)): 1.1 µM

CN(C)CCc1ccc(Nc2nc(-c3ccncc3)cs2)cc1
IC50 ([1]; read-out: pIC50 (converted)): 50.1 µM

Clc1cccc(Nc2nc(-c3ccncc3)cs2)c1
IC50 ([1]; read-out: pIC50 (converted)): 3.02 µM

Cc1cccc(Nc2nc(-c3ccncc3C#CCCCO)cs2)c1
IC50 [3]: 0.3 µM | IC50 ([1]; read-out: IC50): 6.3 µM | IC50 ([1]; read-out: pIC50 (converted)): 6.3 µM

Oc1ccc(Nc2nc(-c3ccncc3)cs2)cc1
IC50 ([1]; read-out: pIC50 (converted)): 5.37 µM

Cc1cccc(Nc2nc(-c3ccncc3)c(CN3CCOCC3)s2)c1
IC50 ([1]; read-out: pIC50 (converted)): 2.51 µM

Cc1cccc(Nc2nc(-c3ccncc3C#CCN3CCN(C)CC3)cs2)c1
Ratio IC50 [2]: 0.9 | IC50 [3]: 2.2 µM | IC50 ([1]; read-out: IC50): 2.6 µM | IC50 ([1]; read-out: pIC50 (converted)): 2.63 µM

Cc1cccc(Nc2nc(-c3ccnc(F)c3)cs2)c1
IC50 ([1]; read-out: pIC50 (converted)): 4.57 µM

Clc1ccc(Nc2nc(-c3ccncc3)cs2)cc1
IC50 ([1]; read-out: pIC50 (converted)): 38 µM

CCc1cccc(Nc2nc(-c3ccncc3)cs2)c1
IC50 ([1]; read-out: pIC50 (converted)): 2.51 µM

Cc1ccc(Nc2nc(-c3ccncc3)cs2)cc1O
IC50 ([1]; read-out: pIC50 (converted)): 12 µM

Cc1cccc(Nc2nc(-c3ccncc3-c3ccc(C(C)C)cc3)cs2)c1
IC50 [3]: > 40 µM | IC50 ([1]; read-out: IC50): > 40 µM | IC50 ([1]; read-out: pIC50 (converted)): 40.7 µM

Cc1cc(C)cc(Nc2nc(-c3ccncc3)cs2)c1
IC50 ([1]; read-out: pIC50 (converted)): 4.57 µM

c1cc(-c2csc(Nc3ccc4c(c3)CCC4)n2)ccn1
IC50 ([1]; read-out: pIC50 (converted)): 2.04 µM

CN(C)CCOc1ccc(Nc2nc(-c3ccncc3)cs2)cc1
IC50 ([1]; read-out: pIC50 (converted)): 60.3 µM

COc1cccc(Nc2nc(-c3ccncc3)cs2)c1
IC50 ([1]; read-out: pIC50 (converted)): 3.02 µM
